Source: BindingDB's records for patent US12240838 (Biogen Ma, 2025)
pIC50: −log10 of the molar value.

Target: Tyrosine-protein kinase BTK (Homo sapiens, UniProt Q06187)
Assay: In Vitro BTK Kinase Assay
Method: The purpose of the BTK in vitro assay is to determine compound potency against BTK through the measurement of IC50. […] For a typical assay, a 24 μL aliquot of a ATP/peptide master mix (final concentration; ATP 10 μM, polyGAT 100 nM) in kinase buffer (10 mM Tris-HCl pH 7.5, 10 mM MgCl2, 200 μM Na3PO4, 5 mM DTT, 0.01% Triton X-100, and 0.2 mg/ml casein) is added to each well. […] The assay is incubated for 30 minutes before being stopped with […] of a 50 mM EDTA solution. […] The plate is covered and incubated for 45 minutes at room temperature.

Tyrosine-protein kinase BTK, sequence (Q06187 whole entry): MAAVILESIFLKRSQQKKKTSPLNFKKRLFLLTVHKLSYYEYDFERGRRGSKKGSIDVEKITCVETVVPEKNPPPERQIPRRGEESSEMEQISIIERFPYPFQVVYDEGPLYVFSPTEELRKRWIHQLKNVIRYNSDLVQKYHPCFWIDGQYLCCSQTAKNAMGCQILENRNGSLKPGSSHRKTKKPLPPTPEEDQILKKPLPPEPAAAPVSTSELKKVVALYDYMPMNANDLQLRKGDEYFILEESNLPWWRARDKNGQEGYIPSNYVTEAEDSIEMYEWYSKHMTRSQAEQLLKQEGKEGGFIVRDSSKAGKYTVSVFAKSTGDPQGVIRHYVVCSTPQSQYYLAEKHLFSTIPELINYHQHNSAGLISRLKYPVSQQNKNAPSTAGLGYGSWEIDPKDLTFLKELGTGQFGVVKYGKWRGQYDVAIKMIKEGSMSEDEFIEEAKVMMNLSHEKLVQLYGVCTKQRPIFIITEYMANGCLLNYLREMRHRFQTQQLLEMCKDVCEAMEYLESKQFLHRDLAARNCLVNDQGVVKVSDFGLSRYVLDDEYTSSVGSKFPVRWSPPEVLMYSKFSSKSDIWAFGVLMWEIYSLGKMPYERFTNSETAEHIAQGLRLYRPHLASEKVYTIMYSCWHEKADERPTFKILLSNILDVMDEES

## CC(C)(C)c1nc(C(=O)NCc2cc(F)c(-c3ccnc(NC(=O)C4CC4)c3)cc2C(F)(F)F)no1 [US12240838, Compound 62]
  pIC50: > 9.00
